Experiments:
Jurkat cells = assay: Apoptosis/necrosis induction (Annexin V Alexa Fluor488, 7AAD staining); assay type: cell-based; conditions: compound at IC50 concentration, incubation 2 h
Source text: Multiparametric evaluation of marker molecules, along with the detection of damage to the mitochondrial membrane, makes it possible to clearly determine the type of cell death. The method of cell staining with three different dyes (Annexin V Alexa Fluor488, 7AAD and MitoSense Red) provides simultaneous specification of various aspects of the state of the cell membrane, the state of DNA and the viability of mitochondria; together, it is a reliable sign of intrinsic and mitochondrial apoptosis pathway. Normal cells with intact mitochondrial membranes have high MitoSense Red fluorescence, while cells with decoupled oxidation and phosphorylation have much lower fluorescence. […]
Figure 1 The ratio of the level of mito-damage and the level of apoptosis in Jurkat cells of ionic compounds based on ursolic, oleanolic and betulinic acids.

A2780 = assay: In vitro cytotoxicity, IC50 by flow cytometry (Guava ViaCount); assay type: cell-based, human
Experimental: (§1) Human cancer cell line HeLa, HL60, A2780 was obtained from the HPA Culture Collections (Salisbury, UK). Cells (Jurkat, K562, U937, Hek293, Fibroblasts) were purchased from Russian Cell Culture Collection (Institute of Cytology of the Russian Academy of Sciences, […], Russia) and cultured according to standard protocols and sterile technique. […] Cells were maintained in RPMI 1640 (Jurkat, K562, U937, HL60) (Gibco, Billings, MT, USA) supplemented with […], 10% FBS (Sigma) and 100 units/mL penicillin–streptomycin (Sigma). All types of cells were grown in an atmosphere of 5% CO2 at 37 °C. The cells were subcultured at 2–3 days intervals. Cells were then seeded in 24-well plates at 5 × 10^4 cells per well and incubated overnight. Jurkat, K562, U937, HL60 cells were subcultured at 2-day intervals with a seeding density of 1 × 10^5 cells per 24-well plates in RPMI with 10% FBS.
(§2) The antitumor activity of the synthesized ionic compounds was initially assessed in vitro on Jurkat, K562, U937, HL60, HEK293, A2780 cell lines, including the determination of IC50 by flow cytometry involving Guava ViaCount (Millipore) reagent kits.

HL60 = assay: as above; assay type: cell-based, human
Experimental: as §1, §2

K562 = assay: as above; assay type: cell-based
Experimental: as §1, §2

U937 = assay: as above; assay type: cell-based
Experimental: as §1, §2

HEK293 = assay: as above; assay type: cell-based; conditions: conditionally normal
Experimental: as §1, §2

Jurkat = assay: as above; assay type: cell-based; conditions: Jurkat cells
Experimental: as §1, §2

[1] = tested on: mitochondria of Jurkat tumor cells; assay: Mitochondrial damage (MitoSense Red staining); assay type: cell-based; conditions: compound at IC50 concentration, incubation 2 h

| Compound | Apoptosis (%) Early (Jurkat cells) [%] | Apoptosis (%) Late (Jurkat cells) [%] | Apoptosis (%) Necrosis (Jurkat cells) [%] | IC50 (A2780; A2780 cells) [µM] | IC50 (HL60; HL60 cells) [µM] | IC50 (K562; K562 cells) [µM] | IC50 (U937; U937 cells) [µM] | IC50 (HEK293; HEK293 cells) [µM] | IC50 (Jurkat) [µM] | Mito-Damage (%) [1] [%] | IC50 (A2780; Homo sapiens, A2780, A2780 cells) [µM] | IC50 (HL60; Homo sapiens, HL-60, HL60 cells) [µM] | IC50 (K562; Homo sapiens, K562, K562 cells) [µM] | IC50 (U937; Homo sapiens, U-937, U937 cells) [µM] | IC50 (HEK293; Homo sapiens, HEK293, HEK293 cells) [µM] | IC50 (Jurkat; Homo sapiens, Jurkat) [µM] |
| --- | --- | --- | --- | --- | --- | --- | --- | --- | --- | --- | --- | --- | --- | --- | --- | --- |
| 1-Benzyl-3-methylimidazolium (3β)-3-hydroxyolup-20(29)-en28-oylate [17d] | 4.82 | 1.44 | 2.11 | 0.087 ± 0.009 | 0.019 ± 0.002 | 0.044 ± 0.002 | 0.04 ± 0.002 | 0.189 ± 0.016 | 0.016 ± 0.001 | 9.69 | – | – | – | – | – | – |
| 1-Benzyl-3-methylimidazolium (3β)-3-hydroxyours-12-en-28-oylate [16d] | – | – | – | 0.027 ± 0.002 | 0.005 ± 0.001 | 0.012 ± 0.001 | 0.011 ± 0.001 | 0.056 ± 0.004 | 0.011 ± 0.001 | – | – | – | – | – | – | – |
| 1-Butyl-3-methylimidazolium (3β)-3-hydroxyolean-12-en-28-oylate [15b] | – | – | – | 0.079 ± 0.007 | 0.017 ± 0.002 | 0.041 ± 0.002 | 0.038 ± 0.002 | 0.167 ± 0.016 | 0.019 ± 0.001 | – | – | – | – | – | – | – |
| 1-Butyl-3-methylimidazolium (3β)-3-hydroxyolup-20(29)-en28-oylate [17b] | 6.45 | 3.38 | 1.92 | 0.074 ± 0.006 | 0.015 ± 0.001 | 0.039 ± 0.003 | 0.032 ± 0.003 | 0.159 ± 0.014 | 0.014 ± 0.001 | 17.39 | – | – | – | – | – | – |
| 1-Butyl-3-methylimidazolium (3β)-3-hydroxyours-12-en-28-oylate [16b] | – | – | – | 0.396 ± 0.035 | 0.089 ± 0.008 | 0.336 ± 0.016 | 0.299 ± 0.014 | 0.935 ± 0.094 | 0.097 ± 0.006 | – | – | – | – | – | – | – |
| 1-Hexyl-3-methylimidazolium (3β)-3-hydroxyolean-12-en-28-oylate [15c] | – | – | – | 0.157 ± 0.018 | 0.039 ± 0.004 | 0.08 ± 0.004 | 0.069 ± 0.003 | 0.392 ± 0.038 | 0.043 ± 0.002 | – | – | – | – | – | – | – |
| 1-Hexyl-3-methylimidazolium (3β)-3-hydroxyolean-12-en-28-oylate [15d] | – | – | – | 0.231 ± 0.022 | 0.069 ± 0.007 | 0.159 ± 0.008 | 0.143 ± 0.007 | 0.581 ± 0.047 | 0.107 ± 0.006 | – | – | – | – | – | – | – |
| 1-Hexyl-3-methylimidazolium (3β)-3-hydroxyolup-20(29)-en28-oylate [17c] | 3.97 | 1.70 | 2.82 | 0.113 ± 0.01 | 0.026 ± 0.003 | 0.056 ± 0.003 | 0.054 ± 0.003 | 0.293 ± 0.031 | 0.029 ± 0.002 | 8.71 | – | – | – | – | – | – |
| 1-Hexyl-3-methylimidazolium (3β)-3-hydroxyours-12-en-28-oylate [16c] | – | – | – | 0.039 ± 0.004 | 0.007 ± 0.001 | 0.016 ± 0.001 | 0.014 ± 0.001 | 0.081 ± 0.008 | 0.007 ± 0.001 | – | – | – | – | – | – | – |
| C[n+]1ccn(CCOC(=O)[C@]23CCC(C)(C)CC2C2=CCC4[C@@]5(C)CC[C@H](O)C(C)(C)C5CC[C@@]4(C)[C@]2(C)CC3)c1 (stereo partly drawn) [9a, 1-(2-{[(3β)-3-Hydroxyolean-12-en-28-oyl]oxy}ethyl)-3-methylimidazolium Bromide] | 1.72 | 2.79 | 1.96 | – | – | – | – | – | – | 5.07 | 0.132 ± 0.011 | 0.024 ± 0.002 | 0.078 ± 0.004 | 0.069 ± 0.004 | 0.259 ± 0.024 | 0.037 ± 0.002 |

Reference: publication PMC9913425, “Pentacyclic Triterpenoids-Based Ionic Compounds: Synthesis, Study of Structure–Antitumor Activity Relationship, Effects on Mitochondria and Activation of Signaling Pathways of Proliferation, Genome Reparation and Early Apoptosis” (Cancers, 2023)
